This note sets out measurements from patent publication US8329918B2, “Selective alpha 2B/2C agonists” (priority 2009, dated 2012).

Like-named read-outs stand apart in the source and are kept apart here.

One assay deals with T1, alpha2B receptor (Homo sapiens, UniProt P18089).
T1 construct: expressed in transfected cells; host or cells: NIH-3T3
T1 sequence (P18089 1-450): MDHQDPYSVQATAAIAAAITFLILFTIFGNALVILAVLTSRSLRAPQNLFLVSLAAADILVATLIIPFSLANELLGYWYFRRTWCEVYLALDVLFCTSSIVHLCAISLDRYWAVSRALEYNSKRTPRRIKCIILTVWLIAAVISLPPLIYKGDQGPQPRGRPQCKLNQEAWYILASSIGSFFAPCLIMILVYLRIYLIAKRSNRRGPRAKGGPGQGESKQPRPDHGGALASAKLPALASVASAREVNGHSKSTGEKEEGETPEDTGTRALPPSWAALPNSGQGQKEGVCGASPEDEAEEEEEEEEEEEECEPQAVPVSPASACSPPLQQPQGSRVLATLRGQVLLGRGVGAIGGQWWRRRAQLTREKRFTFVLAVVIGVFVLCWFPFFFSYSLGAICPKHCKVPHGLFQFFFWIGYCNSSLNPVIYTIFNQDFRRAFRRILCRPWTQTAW
In words: RSAT assay, alpha 2B. It is filed as cell-based. The following applies: for (rel. efficacy) Alpha 2B: ratio of maximal effect to standard full agonist brimonidine (UK14304). As for the experimental part:
(§1) Selected presently described compounds were synthesized and tested for alpha adrenergic activity using the Receptor Selection and Amplification Technology (RSAT) assay. Cells expressing each of the alpha-2-adrenergic receptors alone were incubated with various compounds and a receptor-mediated growth response was measured. The compound's activity is expressed as its relative efficacy compared to a standard full agonist.
(§2) The RSAT assay measures a receptor-mediated loss of contact inhibition that results in selective proliferation of receptor-containing cells in a mixed population of confluent cells. The increase in cell number is assessed with an appropriate transfected marker gene such as β-galactosidase, the activity of which can be easily measured in a 96-well format. Receptors that activate the G protein, Gq, elicit this response. Alpha2 receptors, which normally couple to Gi, activate the RSAT response when coexpressed with a hybrid Gq protein that has a Gi receptor recognition domain, called Gq/i5.
(§3) NIH-3T3 cells are plated at a density of 2×10^6 cells in 15 cm dishes and maintained in Dulbecco's modified Eagle's medium supplemented with 10% calf serum. One day later, cells are cotransfected by calcium phosphate precipitation with mammalian expression plasmids encoding p-SV-β-galactosidase (5-10 μg), receptor (1-2 μg) and G protein (1-2 μg). 40 μg salmon sperm DNA may also be included in the transfection mixture. Fresh media is added on the following day and 1-2 days later, cells are harvested and frozen in 50 assay aliquots. Cells are thawed and […] added to […] aliquots of various concentrations of drugs in triplicate in 96-well dishes. Incubations continue 72-96 hr at 37° C. After washing with phosphatebuffered saline, β-galactosidase enzyme activity is determined by adding 200 μl of the chromogenic substrate (consisting of 3.5 mM o-nitrophenyl-β-D-galactopyranoside and 0.5% nonidet P-40 in phosphate buffered saline), incubating overnight at 30° C. and measuring optical density at 420 nm. The absorbance is a measure of enzyme activity, which depends on cell number and reflects a receptor-mediated cell proliferation. The EC50 and maximal effect of each drug at each alpha2 receptor is determined. The efficacy or intrinsic activity is calculated as a ratio of the maximal effect of the drug to the maximal effect of a standard full agonist for each receptor subtype. Brimonidine, also called UK14304, is used as the standard agonist for the alpha2A, alpha2B, and alpha2C receptors.
(§4) The compounds activity is expressed as its relative efficacy compared to a standard full agonist.

In another assay the target is T2, alpha2C receptor (Homo sapiens, UniProt P18825).
T2 construct: expressed in transfected cells; host or cells: NIH-3T3
T2 sequence (P18825 1-462): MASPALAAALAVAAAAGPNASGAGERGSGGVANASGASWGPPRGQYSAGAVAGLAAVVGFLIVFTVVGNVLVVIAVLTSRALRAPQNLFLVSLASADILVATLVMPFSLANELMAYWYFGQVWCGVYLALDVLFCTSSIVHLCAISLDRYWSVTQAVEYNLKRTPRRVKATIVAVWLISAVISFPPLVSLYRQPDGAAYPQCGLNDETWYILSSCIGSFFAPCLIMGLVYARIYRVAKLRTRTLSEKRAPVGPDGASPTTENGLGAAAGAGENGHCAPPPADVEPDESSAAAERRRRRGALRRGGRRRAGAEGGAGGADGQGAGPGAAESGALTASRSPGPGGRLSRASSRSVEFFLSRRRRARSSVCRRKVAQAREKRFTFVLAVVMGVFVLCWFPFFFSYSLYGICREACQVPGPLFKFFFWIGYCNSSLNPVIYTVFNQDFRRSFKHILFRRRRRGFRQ
Put plainly: RSAT assay, alpha 2C. The assay is classed as cell-based. As to conditions: for (rel. efficacy) Alpha 2C: ratio of maximal effect to standard full agonist brimonidine (UK14304). As for the experimental part: as §1, §2, §3, §4

For the next assay, the target named is T3, alpha2A receptor (Homo sapiens, UniProt P08913).
T3 sequence (P08913 1-465): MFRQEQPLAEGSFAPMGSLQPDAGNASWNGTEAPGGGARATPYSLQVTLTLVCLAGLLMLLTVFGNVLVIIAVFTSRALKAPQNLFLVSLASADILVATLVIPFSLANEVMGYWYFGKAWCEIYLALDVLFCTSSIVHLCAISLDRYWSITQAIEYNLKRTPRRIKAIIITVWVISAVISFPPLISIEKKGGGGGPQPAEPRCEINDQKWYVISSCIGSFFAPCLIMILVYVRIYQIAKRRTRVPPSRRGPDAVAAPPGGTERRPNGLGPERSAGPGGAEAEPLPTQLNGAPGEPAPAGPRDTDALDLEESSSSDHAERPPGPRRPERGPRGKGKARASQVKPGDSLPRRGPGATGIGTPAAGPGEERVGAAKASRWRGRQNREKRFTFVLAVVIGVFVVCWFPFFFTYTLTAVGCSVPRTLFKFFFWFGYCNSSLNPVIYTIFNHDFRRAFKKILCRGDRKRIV
In words: RSAT assay, alpha 2A. The assay is classed as cell-based. The following applies: for (rel. efficacy) Alpha 2A: ratio of maximal effect to standard full agonist brimonidine (UK14304). As for the experimental part:
as §1, §2, §3, §4

Assay [1] concerns diabetic patient with moderate neuropathy in the right leg. In words: Treating diabetic peripheral neuropathy in a patient. It is filed as in vivo. The following applies: topical composition on the right leg twice daily; two months later. As for the experimental part:
A topical composition including N-(2-methoxybenzyl)-4,5-dihydrooxazol-2-amine is administered on the right leg of the patient twice daily.
III. […] A topical composition including N-(2-methoxybenzyl)-4,5-dyhydrothizaol-2-amine is administered on the right leg of the patient twice daily.
III. […] A topical composition including N-(3-chloro-2-fluorobenzyl)-4,5-dihydrooxazol-2-amine is administered on the right leg of the patient twice daily.

The subject of assay [2] is patient with moderate intraocular pressure in the right eye. Put plainly: Treating elevated intraocular pressure in a patient. As to conditions: ophthalmic composition to the right eye twice daily; two months later. The assay is classed as in vivo. The source says:
An ophthalmic composition including N-(2-methoxybenzyl)-4,5-dihydrooxazol-2-amine is delivered to the right eye of the patient twice daily.
II. […] An ophthalmic composition including N-(2-methoxybenzyl)-4,5-dyhydrothizaol-2-amine is delivered to the right eye of the patient twice daily.
III. […] An ophthalmic composition including N-(3-chloro-2-fluorobenzyl)-4,5-dihydrooxazol-2-amine is delivered to the right eye of the patient twice daily.

Assay [3] concerns patient with moderate post-herpetic neuralgia pain. In words: Treating post-herpetic neuralgia pain in a patient. The assay is classed as in vivo. The following applies: tablet twice daily as needed. From the text:
A tablet including N-(2-methoxybenzyl)-4,5-dihydrooxazol-2-amine is delivered taken by the patient twice daily as needed for the pain.
II. […] A tablet including N-(2-methoxybenzyl)-4,5-dyhydrothizaol-2-amine is delivered taken by the patient twice daily as needed for the pain.
III. […] A tablet including N-(3-chloro-2-fluorobenzyl)-4,5-dihydrooxazol-2-amine is delivered taken by the patient twice daily as needed for the pain.

[4] abbreviates: RSAT, NIH-3T3 cells, NA = not active, read-out: EC50 (nM) Alpha 2A.
Where [5] appears, read: RSAT, NIH-3T3 cells, NA = not active, read-out: EC50 (nM) Alpha 2C.

Consider `Cc1cccc(CNC2=NCCS2)c1Cl`, for which the concentration giving a half-maximal response (EC50) on alpha2B receptor worked out at 11 nM; at alpha2C receptor, 32 nM; on alpha2A receptor (setting [4]), 281 nM. On alpha2B receptor (RSAT), the “(rel. efficacy) Alpha 2B” value was 1.27. Moreover, the “(rel. efficacy) Alpha 2C” value on alpha2C receptor (RSAT) was 1.03. Moreover, the “(rel. efficacy) Alpha 2A” value at alpha2A receptor (RSAT) was 0.4.

Consider `Clc1ccc(Br)c(CNC2=NCCS2)c1`, for which the EC50 was found to be 250 nM on alpha2B receptor (RSAT, NIH-3T3 cells, NA = not active, read-out: EC50 (nM) Alpha 2B); 855 nM on alpha2C receptor (setting [5]); 2270 nM at alpha2A receptor (setting [4]). On alpha2B receptor (RSAT), the “(rel. efficacy) Alpha 2B” value came to 1.04. Further, the “(rel. efficacy) Alpha 2C” value at alpha2C receptor (RSAT) was 0.69. The “(rel. efficacy) Alpha 2A” value at alpha2A receptor (RSAT) was found to be 0.45.

Consider `Clc1c(Br)cccc1CNC1=NCCS1`, for which the results for the concentration giving a half-maximal response (EC50) on alpha2B receptor, on alpha2C receptor (setting [5]) and on alpha2A receptor were 18 nM, 198 nM and over 3000 nM, respectively. The “(rel. efficacy) Alpha 2B” value on alpha2B receptor (RSAT) is on record as 1.01. Also, the “(rel. efficacy) Alpha 2C” value on alpha2C receptor (RSAT) is given as 0.98. Also, the “(rel. efficacy) Alpha 2A” value on alpha2A receptor (RSAT) turned out to be 0.4.

Take `COc1ccc(Cl)cc1CNC1=NCCS1`: the EC50 at alpha2B receptor is 77 nM; on alpha2C receptor (setting [5]), 465 nM; on alpha2A receptor (setting [4]), 2250 nM. Besides, the “(rel. efficacy) Alpha 2B” value on alpha2B receptor (RSAT) amounted to 0.85. At alpha2C receptor (RSAT), the “(rel. efficacy) Alpha 2C” value is given as 0.55. Moreover, the “(rel. efficacy) Alpha 2A” value on alpha2A receptor (RSAT) was 0.38.

Take `COc1ccccc1CNC1=NCCS1` [N-(2-methoxybenzyl)-4,5-dihydrothiazol-2-amine]: in assay [1], the “neuropathy of the patient” value is “reduction neuropathy”. Further, in assay [2], the “intraocular pressure of the patient” value is “normal intraocular pressure”. The patient-reported pain entry in assay [3] is “reduction of pain”.

For `Fc1c(I)cccc1CNC1=NCCS1`, the EC50 on alpha2B receptor worked out at 6 nM; on alpha2C receptor, 88 nM; on alpha2A receptor (setting [4]), 589 nM. Also, at alpha2B receptor (RSAT), the “(rel. efficacy) Alpha 2B” value is reported as 1.0. Besides, the “(rel. efficacy) Alpha 2C” value on alpha2C receptor (RSAT) is reported as 1.05. Besides, the “(rel. efficacy) Alpha 2A” value at alpha2A receptor (RSAT) stood at 1.07.

In the case of `COc1c(Br)cccc1CNC1=NCCS1`, the EC50 at alpha2B receptor turned out to be 31 nM; on alpha2C receptor (setting [5]) it was 109 nM; on alpha2A receptor (setting [4]) it was 621 nM. For the same molecule, the “(rel. efficacy) Alpha 2B” value on alpha2B receptor (RSAT) is 1.1. For the same molecule, at alpha2C receptor (RSAT), the “(rel. efficacy) Alpha 2C” value came to 0.81. Further, the “(rel. efficacy) Alpha 2A” value at alpha2A receptor (RSAT) is given as 0.55.

Regarding `Brc1ccccc1CNC1=NCCS1`, the EC50 on alpha2B receptor was 29 nM; on alpha2C receptor, 190 nM; at alpha2A receptor, 2780 nM. Further, the “(rel. efficacy) Alpha 2B” value at alpha2B receptor (RSAT) is 0.84. At alpha2C receptor (RSAT), the “(rel. efficacy) Alpha 2C” value is given as 0.77. The “(rel. efficacy) Alpha 2A” value on alpha2A receptor (RSAT) was 0.37.

`Fc1c(Cl)cccc1CNC1=NCCO1` [N-(3-chloro-2-fluorobenzyl)-4,5-dihydrooxazol-2-amine]: in assay [1], the “neuropathy of the patient” value was “reduction neuropathy”. In addition, the “intraocular pressure of the patient” value in assay [2] is recorded as “normal intraocular pressure”. Also, the patient-reported pain entry in assay [3] was “reduction of pain”.

As to `COc1c(Cl)cccc1CNC1=NCCS1`, the EC50 at alpha2B receptor is 22 nM; at alpha2C receptor, 99 nM; at alpha2A receptor, 701 nM. At alpha2B receptor (RSAT), the “(rel. efficacy) Alpha 2B” value is listed as 1.08. The “(rel. efficacy) Alpha 2C” value on alpha2C receptor (RSAT) is recorded as 0.73. Besides, the “(rel. efficacy) Alpha 2A” value at alpha2A receptor (RSAT) is 0.38.

As for `COc1ccccc1CNC1=NCCO1` [N-(2-methoxybenzyl)-4,5-dihydrooxazol-2-amine], the “neuropathy of the patient” value in assay [1] is reported as “reduction neuropathy”. The “intraocular pressure of the patient” value in assay [2] was “normal intraocular pressure”. Also, in assay [3], the patient-reported pain result is on record as “reduction of pain”.

Consider `COc1c(C)cccc1CNC1=NCCS1`, for which the values for the EC50 at alpha2B receptor, at alpha2C receptor and at alpha2A receptor were 27 nM, 187 nM and 481 nM, respectively. At alpha2B receptor (RSAT), the “(rel. efficacy) Alpha 2B” value is 0.98. In addition, the “(rel. efficacy) Alpha 2C” value on alpha2C receptor (RSAT) stood at 0.97. Also, the “(rel. efficacy) Alpha 2A” value at alpha2A receptor (RSAT) is on record as 0.57.

In the case of `Fc1c(Br)cccc1CNC1=NCCS1`, the EC50 is 34 nM on alpha2B receptor, 182 nM at alpha2C receptor and 1380 nM at alpha2A receptor. Also, the “(rel. efficacy) Alpha 2B” value at alpha2B receptor (RSAT) was found to be 0.98. In addition, at alpha2C receptor (RSAT), the “(rel. efficacy) Alpha 2C” value is 0.64. For the same molecule, on alpha2A receptor (RSAT), the “(rel. efficacy) Alpha 2A” value turned out to be 0.44.
